Results as given in US8022206B2 (OSI Pharmaceuticals, LLC, priority 2008, dated 2011).

What was measured:
[1] = target: RON (human) (Homo sapiens, UniProt Q04912); test: RON (human) AlphaScreen kinase assay, Km of ATP; assay type: biochemical; settings: AlphaScreen, Km of ATP; read-out: RON biochemical IC50
Method in brief: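 Detection used PT66 AlphaScreen beads added in Tris pH 7.5/NaCl/EDTA/BSA buffer, read after 1 h incubation. Vehicle-only DMSO wells served as controls.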

[2] = target: MET (human) (Homo sapiens, UniProt P08581); test: MET (human) AlphaScreen kinase assay, Km of ATP; assay type: biochemical; settings: AlphaScreen, Km of ATP; read-out: Met biochemical IC50
MET (human), sequence (P08581 25-1390): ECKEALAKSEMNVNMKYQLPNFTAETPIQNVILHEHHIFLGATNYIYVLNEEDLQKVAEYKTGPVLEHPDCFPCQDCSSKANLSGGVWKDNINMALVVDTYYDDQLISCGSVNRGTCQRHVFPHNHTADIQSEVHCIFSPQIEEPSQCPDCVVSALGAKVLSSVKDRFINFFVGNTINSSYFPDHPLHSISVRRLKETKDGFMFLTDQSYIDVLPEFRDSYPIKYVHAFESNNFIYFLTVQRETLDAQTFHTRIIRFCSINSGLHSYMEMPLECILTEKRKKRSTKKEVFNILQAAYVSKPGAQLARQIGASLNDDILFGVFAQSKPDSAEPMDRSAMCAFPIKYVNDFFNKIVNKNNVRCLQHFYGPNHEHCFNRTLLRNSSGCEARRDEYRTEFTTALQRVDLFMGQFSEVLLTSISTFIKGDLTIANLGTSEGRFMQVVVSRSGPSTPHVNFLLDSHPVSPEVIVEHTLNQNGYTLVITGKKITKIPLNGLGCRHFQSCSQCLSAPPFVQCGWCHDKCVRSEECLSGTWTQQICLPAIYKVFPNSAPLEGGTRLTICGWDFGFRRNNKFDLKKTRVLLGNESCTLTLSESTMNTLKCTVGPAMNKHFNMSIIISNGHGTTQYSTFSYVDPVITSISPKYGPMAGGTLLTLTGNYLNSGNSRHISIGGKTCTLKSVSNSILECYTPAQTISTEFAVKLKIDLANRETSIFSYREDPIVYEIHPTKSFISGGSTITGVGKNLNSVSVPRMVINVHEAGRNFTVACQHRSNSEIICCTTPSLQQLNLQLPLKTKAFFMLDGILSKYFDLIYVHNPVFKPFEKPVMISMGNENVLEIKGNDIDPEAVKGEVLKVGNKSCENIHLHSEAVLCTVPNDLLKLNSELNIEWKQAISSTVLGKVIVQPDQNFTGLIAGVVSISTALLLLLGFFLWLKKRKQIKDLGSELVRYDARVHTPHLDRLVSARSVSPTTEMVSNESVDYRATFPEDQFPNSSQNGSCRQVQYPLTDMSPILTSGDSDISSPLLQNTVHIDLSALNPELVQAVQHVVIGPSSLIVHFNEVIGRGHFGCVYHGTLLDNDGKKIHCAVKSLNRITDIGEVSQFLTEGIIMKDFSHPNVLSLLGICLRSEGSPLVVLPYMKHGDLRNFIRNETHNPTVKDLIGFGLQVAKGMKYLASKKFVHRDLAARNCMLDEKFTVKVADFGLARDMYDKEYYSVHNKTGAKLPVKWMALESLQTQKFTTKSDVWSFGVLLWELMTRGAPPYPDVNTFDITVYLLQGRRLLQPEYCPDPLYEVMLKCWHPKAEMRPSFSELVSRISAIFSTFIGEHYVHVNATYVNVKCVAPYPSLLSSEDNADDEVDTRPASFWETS
Method in brief: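 Human MET at lot-optimised concentration in 50 mM Tris pH 7.4 buffer with 1 mM DTT, compound at 1% DMSO final; enzyme starts the reaction, 60 min at RT.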

RON (human), sequence (Q04912 25-1400): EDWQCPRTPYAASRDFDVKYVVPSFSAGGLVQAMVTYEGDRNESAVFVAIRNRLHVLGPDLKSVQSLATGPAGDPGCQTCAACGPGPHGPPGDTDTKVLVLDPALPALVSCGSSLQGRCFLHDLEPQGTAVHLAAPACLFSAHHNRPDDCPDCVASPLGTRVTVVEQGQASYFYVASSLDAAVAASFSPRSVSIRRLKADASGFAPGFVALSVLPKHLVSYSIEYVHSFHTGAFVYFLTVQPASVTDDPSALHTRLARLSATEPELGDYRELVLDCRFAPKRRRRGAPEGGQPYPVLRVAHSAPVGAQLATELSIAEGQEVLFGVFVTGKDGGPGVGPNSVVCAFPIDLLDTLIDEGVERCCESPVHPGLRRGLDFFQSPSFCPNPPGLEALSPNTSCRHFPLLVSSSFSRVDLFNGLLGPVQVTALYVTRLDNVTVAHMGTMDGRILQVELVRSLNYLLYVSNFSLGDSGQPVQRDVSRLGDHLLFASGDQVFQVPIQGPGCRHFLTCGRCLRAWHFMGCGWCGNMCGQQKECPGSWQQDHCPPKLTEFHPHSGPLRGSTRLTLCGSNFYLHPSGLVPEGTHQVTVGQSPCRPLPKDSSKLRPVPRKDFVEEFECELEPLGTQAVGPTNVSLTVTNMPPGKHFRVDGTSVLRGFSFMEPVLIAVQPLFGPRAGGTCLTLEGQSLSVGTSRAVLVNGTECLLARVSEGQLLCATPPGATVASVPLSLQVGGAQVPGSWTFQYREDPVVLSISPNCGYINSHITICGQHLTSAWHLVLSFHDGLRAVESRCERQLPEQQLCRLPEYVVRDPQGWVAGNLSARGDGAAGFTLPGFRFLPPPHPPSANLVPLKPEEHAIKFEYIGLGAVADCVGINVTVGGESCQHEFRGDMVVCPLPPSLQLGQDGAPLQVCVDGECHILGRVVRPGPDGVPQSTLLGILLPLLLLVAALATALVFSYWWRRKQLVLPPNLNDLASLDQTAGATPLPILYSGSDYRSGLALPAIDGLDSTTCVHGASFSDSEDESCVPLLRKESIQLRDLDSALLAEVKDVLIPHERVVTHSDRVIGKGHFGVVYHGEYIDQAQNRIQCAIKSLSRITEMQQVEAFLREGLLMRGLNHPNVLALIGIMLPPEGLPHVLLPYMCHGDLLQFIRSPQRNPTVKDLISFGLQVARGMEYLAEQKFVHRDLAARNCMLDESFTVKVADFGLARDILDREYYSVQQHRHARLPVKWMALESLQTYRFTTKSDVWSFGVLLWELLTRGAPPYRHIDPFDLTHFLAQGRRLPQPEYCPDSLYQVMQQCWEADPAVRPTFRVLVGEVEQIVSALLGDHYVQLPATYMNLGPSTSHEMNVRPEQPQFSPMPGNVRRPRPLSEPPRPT

SMILES	IC50 [1]	IC50 [2]
CC(Oc1c(N)ncc2c(-c3cnn(C4CCNCC4)c3)coc12)c1cccc(-c2ccccc2)c1 (stereo not shown) [Example 444, 7-(1-Biphenyl-3-ylethoxy)-3-(1-piperidin-4-yl-1H-pyrazol-4-yl)furo[3,2-c]pyridin-6-ylamine]	0.5 to 5 µM	0.5 to 5 µM
C[C@@H](Oc1c(N)ncc2c(-c3csc(CN)c3)coc12)c1c(Cl)ccc(F)c1Cl [Example 310, 3-(5-Aminomethylthiophen-3-yl)-7-[(R)-1-(2,6-dichloro-3-fluoro-phenyl)ethoxy]furo[3,2-c]pyridin-6-ylamine]	< 0.5 µM	< 0.5 µM
Cn1c(Cc2ccccc2)ncc(-c2ccc(COc3c(N)ncc4c(-c5cnn(C6CCNCC6)c5)coc34)c(F)c2)c1=O [Example 463, 5-{4-[6-Amino-3-(1-piperidin-4-yl-1H-pyrazol-4-yl)-furo[3,2-c]pyridin-7-yloxymethyl]-3-fluorophenyl}-2-benzyl-3-methyl-3H-pyrimidin-4-one]	< 0.5 µM	< 0.5 µM
Cn1c(Cc2ccccc2)ncc(-c2ccc(COc3c(N)ncc4ccoc34)cc2)c1=O [Example 467, 5-[4-(6-Aminofuro[3,2-c]pyridin-7-yloxymethyl)phenyl]-2-benzyl-3-methyl-3H-pyrimidin-4-one]	5 to 20 µM	> 20 µM
C[C@@H](Oc1c(N)ncc2c(C3=CCN(C(=O)CO)CC3)coc12)c1c(Cl)ccc(F)c1Cl [Example 142, 1-[4-{6-Amino-7-[(1R)-1-(2,6-dichloro-3-fluorophenyl)ethoxy]furo[3,2-c]pyridin-3-yl}-3,6-dihydropyridin-1(2H)-yl]-2-hydroxyethanone]	0.5 to 5 µM	< 0.5 µM
C[C@@H](Oc1c(N)ncc2c(-c3csc(C(=O)O)c3)coc12)c1c(Cl)ccc(F)c1Cl [Example 311, 4-{6-Amino-7-[(R)-1-(2,6-dichloro-3-fluorophenyl)ethoxy]furo[3,2-c]pyridin-3-yl}thiophene-2-carboxylic acid]	0.5 to 5 µM	< 0.5 µM
C[C@H](Oc1c(N)ncc2ccoc12)c1nnc2ccc(-c3cnn(C)c3)nn12 [Example 474, 7-{(1S)-1-[6-(1-methyl-1H-pyrazol-4-yl) [1,2,4]triazolo[4,3-b]pyridazin-3-yl]ethoxy}furo[3,2-c]pyridin-6-amine]	> 20 µM	0.5 to 5 µM
CC(Oc1c(N)ncc2c(-c3cnn(C4CCNCC4)c3)coc12)c1ccc(Cl)cc1F (stereo not shown) [Example 378, 7-[1-(4-Chloro-2-fluorophenyl)ethoxy]-3-(1-piperidin-4-yl-1H-pyrazol-4-yl)furo[3,2-c]pyridin-6-ylamine]	0.5 to 5 µM	< 0.5 µM
CC(Oc1c(N)ncc2c(-c3cnn(C4CCNCC4)c3)coc12)c1c(F)ccc(F)c1Cl (stereo not shown) [Example 379, 7-[1-(2-Chloro-3,6-difluorophenyl)ethoxy]-3-(1-piperidin-4-yl-1H-pyrazol-4-yl)furo[3,2-c]pyridin-6-ylamine]	< 0.5 µM	< 0.5 µM
C[C@@H](Oc1c(N)ncc2c(C3=CCN(C(=O)[C@@H]4C[C@@H](F)CN4)CC3)coc12)c1c(Cl)ccc(F)c1Cl [Example 235, (4-{6-Amino-7-[(R)-1-(2,6-dichloro-3-fluorophenyl)ethoxy]-furo[3,2-c]pyridin-3-yl}-3,6-dihydro-2H-pyridin-1-yl)-((2S,4R)-4-fluoropyrrolidin-2-yl)-methanone]	< 0.5 µM	< 0.5 µM
C[C@@H](Oc1c(N)ncc2c(C(=O)O)coc12)c1c(Cl)ccc(F)c1Cl [Example 176, 6-Amino-7-[(R)-1-(2,6-dichloro-3-fluorophenyl)ethoxy]furo[3,2-c]pyridine-3-carboxylic acid]	5 to 20 µM	0.5 to 5 µM
C[C@@H]1CN(Cc2cc(-c3coc4c(O[C@H](C)c5c(Cl)ccc(F)c5Cl)c(N)ncc34)cs2)C[C@H](C)N1 [Example 305, 7-[(R)-1-(2,6-Dichloro-3-fluorophenyl)ethoxy]-3-[5-(cis-3,5-dimethylpiperazin-1-ylmethyl)thiophen-3-yl]-furo[3,2-c]pyridin-6-ylamine]	< 0.5 µM	< 0.5 µM
CCCOC(=O)N1CC=C(c2coc3c(O[C@H](C)c4c(Cl)ccc(F)c4Cl)c(N)ncc23)CC1 [Example 52, 4-{6-Amino-7-[(R)-1-(2,6-dichloro-3-fluorophenyl)-ethoxy]-furo[3,2-c]pyridin-3-yl}-3,6-dihydro-2H-pyridine-1-carboxylic acid propyl ester]	0.5 to 5 µM	0.5 to 5 µM
COC(=O)c1coc2c(O[C@H](C)c3c(Cl)ccc(F)c3Cl)c(N)ncc12 [Example 175, 6-Amino-7-[(R)-1-(2,6-dichloro-3-fluorophenyl)ethoxy]furo[3,2-c]pyridine-3-carboxylic acid methyl ester]	5 to 20 µM	0.5 to 5 µM
C[C@@H](Cc1ccccc1)Oc1c(N)ncc2c(-c3cnn(C4CCNCC4)c3)coc12 [Example 414, 7-((S)-1-Methyl-2-phenylethoxy)-3-(1-piperidin-4-yl-1H-pyrazol-4-yl)furo[3,2-c]pyridin-6-ylamine]	0.5 to 5 µM	< 0.5 µM
Cc1cscc1-c1coc2c(O[C@H](C)c3c(Cl)ccc(F)c3Cl)c(N)ncc12 [Example 111, 7-[(R)-1-(2,6-Dichloro-3-fluorophenyl)ethoxy]-3-(4-methylthiophen-3-yl)furo[3,2-c]pyridin-6-ylamine]	0.5 to 5 µM	0.5 to 5 µM
CC(Cc1ccccc1Br)Oc1c(N)ncc2c(-c3cnn(C4CCNCC4)c3)coc12 (stereo not shown) [Example 436, 7-[2-(2-Bromophenyl)-1-methylethoxy]-3-(1-piperidin-4-yl-1H-pyrazol-4-yl)furo[3,2-c]pyridin-6-ylamine]	< 0.5 µM	< 0.5 µM
CCOC(=O)N1CC=C(c2coc3c(O[C@H](C)c4c(Cl)ccc(F)c4Cl)c(N)ncc23)CC1 [Example 51, 4-{6-Amino-7-[(R)-1-(2,6-dichloro-3-fluorophenyl)-ethoxy]-furo[3,2-c]pyridin-3-yl}-3,6-dihydro-2H-pyridine-1-carboxylic acid ethyl ester]	0.5 to 5 µM	0.5 to 5 µM
C[C@@H](Oc1c(N)ncc2c(-c3ccc(OCCCN(C)C)nc3)coc12)c1c(Cl)ccc(F)c1Cl [Example 122, 7-[(R)-1-(2,6-Dichloro-3-fluorophenyl)ethoxy]-3-[6-(3-dimethylaminopropoxy)pyridin-3-yl]furo[3,2-c]pyridin-6-ylamine]	< 0.5 µM	< 0.5 µM
C[C@@H](Oc1c(N)ncc2c(-c3cnn(C4CCNCC4)c3)c(C#CC(C)(C)O)oc12)c1c(Cl)ccc(F)c1Cl [Example 171, 4-[6-Amino-7-[(R)-1-(2,6-dichloro-3-fluorophenyl)ethoxy]-3-(1-piperidin-4-yl-1H-pyrazol-4-yl)-furo[3,2-c]pyridin-2-yl]-2-methylbut-3-yn-2-ol]	< 0.5 µM	< 0.5 µM
CC(Oc1c(N)ncc2c(-c3cnn(C4CCNCC4)c3)coc12)c1c(F)cccc1Cl (stereo not shown) [Example 401, 7-[1-(2-Chloro-6-fluorophenyl)ethoxy]-3-(1-piperidin-4-yl-1H-pyrazol-4-yl)furo[3,2-c]pyridin-6-ylamine]	0.5 to 5 µM	< 0.5 µM
CC(Oc1c(N)ncc2c(-c3cnn(C4CCNCC4)c3)coc12)c1cccc(OC(F)(F)F)c1 (stereo not shown) [Example 352, 3-(1-Piperidin-4-yl-1H-pyrazol-4-yl)-7-[1-(3-trifluoromethoxy-phenyl)ethoxy]furo[3,2-c]pyridin-6-ylamine]	0.5 to 5 µM	0.5 to 5 µM
C[C@@H](Oc1c(N)ncc2c(-c3ccc(N4CCN(C)CC4)nc3)coc12)c1c(Cl)ccc(F)c1Cl [Example 88, 7-[(R)-1-(2,6-Dichloro-3-fluorophenyl)ethoxy]-3-[6-(4-methylpiperazin-1-yl)pyridin-3-yl]furo[3,2-c]pyridin-6-ylamine]	< 0.5 µM	< 0.5 µM
C[C@@H](Oc1c(N)ncc2c(-c3ccc(C(N)=O)cc3)coc12)c1c(Cl)ccc(F)c1Cl [Example 63, 4-{6-Amino-7-[(R)-1-(2,6-dichloro-3-fluorophenyl)ethoxy]-furo[3,2-c]pyridin-3-yl}benzamide]	0.5 to 5 µM	0.5 to 5 µM
CC(Oc1c(N)ncc2c(-c3cnn(C4CCNCC4)c3)coc12)c1cc(F)cc(-c2ccccc2)c1 (stereo not shown) [Example 449, 7-[1-(5-Fluorobiphenyl-3-yl)ethoxy]-3-(1-piperidin-4-yl-1H-pyrazol-4-yl)furo[3,2-c]pyridin-6-ylamine]	0.5 to 5 µM	0.5 to 5 µM
CC(Cc1c(Cl)cccc1Br)Oc1c(N)ncc2c(-c3cnn(C4CCNCC4)c3)coc12 (stereo not shown) [Example 371, 7-[2-(2-Bromo-6-chlorophenyl)-1-methylethoxy]-3-(1-piperidin-4-yl-1H-pyrazol-4-yl)furo[3,2-c]pyridin-6-ylamine]	0.5 to 5 µM	< 0.5 µM
C[C@@H](Oc1c(N)ncc2c(C3=CCN(C(=O)[C@@H](N)Cc4ccccc4)CC3)coc12)c1c(Cl)ccc(F)c1Cl [Example 256, (2S)-2-Amino-1-[4-{6-amino-7-[(1R)-1-(2,6-dichloro-3-fluoro-phenyl)ethoxy]furo[3,2-c]pyridin-3-yl}-3,6-dihydropyridin-1(2H)-yl]-3-phenylpropan-1-one]	0.5 to 5 µM	< 0.5 µM
C[C@H](Oc1c(N)ncc2c(C3=CCN(C(N)=O)CC3)coc12)c1c(Cl)ccc(F)c1Cl [Example 456, 4-{6-Amino-7-[(S)-1-(2,6-dichloro-3-fluorophenyl)ethoxy]furo[3,2-c]pyridin-3-yl}-3,6-dihydro-2H-pyridine-1-carboxamide]	0.5 to 5 µM	< 0.5 µM
C[C@@H](Oc1c(N)ncc2c(C3=CCN(C(=O)[C@H](N)CO)CC3)coc12)c1c(Cl)ccc(F)c1Cl [Example 255, (2R)-2-Amino-1-[4-{6-amino-7-[(1R)-1-(2,6-dichloro-3-fluoro-phenyl)ethoxy]furo[3,2-c]pyridin-3-yl}-3,6-dihydropyridin-1(2H)-yl]-3-hydroxypropan-1-one]	< 0.5 µM	< 0.5 µM
